Experimental data published in patent US11897867B2, “6-phenyl-4,5-dihydropyridazin-3(2H)-one derivatives as PDE3A and PDE3B inhibitors for treating cancer” (Bayer Aktiengesellschaft, priority 2017, dated 2024).

Legend:
[1] = system: HeLa cells (cervical cancer); experiment: Cell proliferation measurement (Cell Titer Glo), HeLa; type: cell-based; conditions: Homo sapiens, 72 h treatment, read-out: Anti-proliferation IC50 HeLa (Cervical cancer)
Description: (§1) The antiproliferative activity of the compounds of the general formula (I) was examined in vitro in human cancer cells. For this purpose, 1000 cells (or 500 HeLa cells) were plated in 384-well plates with appropriate growth medium and incubated at 37° C. overnight. After 24 h, the cells on the test plate were treated with the compounds of the general formula (I) as and incubated at 37° C. for 72 h. The compounds were added to the cells by means of an HP D300 digital dispenser in a 10 (or more)-step dilution series. As control, the cells were treated with vehicle (DMSO at 0.3% final concentration). After 72 h, the cells were treated with 20 μl/well of 50% CTG solution in PBS (Promega Cell Titer Glo (catalogue #G755B and G756B)) and incubated at room temperature for 10 min, and luminescence was measured by means of a VICTOR V (Perkin Elmer), in order to determine cell viability at the end of treatment. The percentage effect on cell growth and the IC50 derived therefrom were determined for each test substance using the values from untreated wells (=percent viability). The IC50 values were calculated using a 4-parameter fit.

SK-MEL-3 (melanoma) = experiment: Cell proliferation measurement (Cell Titer Glo), SK-MEL-3; type: cell-based; conditions: Homo sapiens, SK-MEL3, SK-MEL-3 cells, 72 h treatment, read-out: Anti-proliferation IC50 SK-MEL-3 (melanoma)
Description: as §1

human full length PDE3A = biological target: T1, human full length PDE3A (Homo sapiens, UniProt Q14432); experiment: PDE3A enzyme inhibition (3H-cAMP Scintillation Proximity Assay); type: biochemical; conditions: PDE3A cell extract from Sf9 cells, 60 min room temperature; read-out: Target IC50 PDE3A IC50
T1 construct: Sf9 cells overexpressing human full length PDE3A; purchased SB Drug Discovery, UK; host or cells: Sf9 cells (cell extract)
Description: (§2) The commercially available 3H-cAMP Scintillation Proximity Assay (SPA, Perkin Elmer) system was used for enzyme inhibition studies. For the determination of the in vitro effect of test substances on the PDE3A reactions 2 μl of the respective test compound solution in DMSO (serial dilutions) were is placed in wells of microtiter plates (Isoplate-96/200W; Perkin Elmer). 50 μl of a dilution of PDE3A cell extract from Sf9 cells overexpressing human full length PDE3A (SB Drug Discovery, UK) in buffer A (50 mM Tris/HCl pH 7.5, 8.3 mM MgCl2, 1.7 mM EDTA, 0.2% BSA) was added. The dilution of the PDE3A cell extract was chosen such that the reaction kinetics was linear and less than 70% of the substrate was consumed (typical dilution 1:5000). The reaction was started by addition of 50 μl (0.025 μCi) of 1:2000 in buffer A w/o BSA diluted substrate [8-3H] adenosine 3′,5′-cyclic phosphate (1 μCi/μl; Perkin Elmer). After incubation at room temperature for 60 min, the reaction was stopped by addition of 25 μl of a suspension containing 18 mg/ml yttrium scintillation proximity beads (Perkin Elmer) in water. The microtiter plates were sealed and measured in a Microbeta scintillation counter (PerkinElmer Wallac). IC50 values were determined from sigmoidal curves by plotting percentage PDE3A activity vs log compound concentration.

human full length PDE3B = biological target: T2, human full length PDE3B (Homo sapiens, UniProt Q13370); experiment: PDE3B enzyme inhibition (3H-cAMP Scintillation Proximity Assay); type: biochemical; conditions: PDE3B cell extract from Sf9 cells, 60 min room temperature; read-out: Target IC50 PDE3B IC50
T2 construct: Sf9 cells overexpressing human full length PDE3B; purchased SB Drug Discovery, UK; host or cells: Sf9 cells (cell extract)
Description: as §2, with “PDE3B” for “PDE3A”, “were” for “were is”, “1:6000).” for “1:5000).”

T2 sequence (Q13370 whole entry): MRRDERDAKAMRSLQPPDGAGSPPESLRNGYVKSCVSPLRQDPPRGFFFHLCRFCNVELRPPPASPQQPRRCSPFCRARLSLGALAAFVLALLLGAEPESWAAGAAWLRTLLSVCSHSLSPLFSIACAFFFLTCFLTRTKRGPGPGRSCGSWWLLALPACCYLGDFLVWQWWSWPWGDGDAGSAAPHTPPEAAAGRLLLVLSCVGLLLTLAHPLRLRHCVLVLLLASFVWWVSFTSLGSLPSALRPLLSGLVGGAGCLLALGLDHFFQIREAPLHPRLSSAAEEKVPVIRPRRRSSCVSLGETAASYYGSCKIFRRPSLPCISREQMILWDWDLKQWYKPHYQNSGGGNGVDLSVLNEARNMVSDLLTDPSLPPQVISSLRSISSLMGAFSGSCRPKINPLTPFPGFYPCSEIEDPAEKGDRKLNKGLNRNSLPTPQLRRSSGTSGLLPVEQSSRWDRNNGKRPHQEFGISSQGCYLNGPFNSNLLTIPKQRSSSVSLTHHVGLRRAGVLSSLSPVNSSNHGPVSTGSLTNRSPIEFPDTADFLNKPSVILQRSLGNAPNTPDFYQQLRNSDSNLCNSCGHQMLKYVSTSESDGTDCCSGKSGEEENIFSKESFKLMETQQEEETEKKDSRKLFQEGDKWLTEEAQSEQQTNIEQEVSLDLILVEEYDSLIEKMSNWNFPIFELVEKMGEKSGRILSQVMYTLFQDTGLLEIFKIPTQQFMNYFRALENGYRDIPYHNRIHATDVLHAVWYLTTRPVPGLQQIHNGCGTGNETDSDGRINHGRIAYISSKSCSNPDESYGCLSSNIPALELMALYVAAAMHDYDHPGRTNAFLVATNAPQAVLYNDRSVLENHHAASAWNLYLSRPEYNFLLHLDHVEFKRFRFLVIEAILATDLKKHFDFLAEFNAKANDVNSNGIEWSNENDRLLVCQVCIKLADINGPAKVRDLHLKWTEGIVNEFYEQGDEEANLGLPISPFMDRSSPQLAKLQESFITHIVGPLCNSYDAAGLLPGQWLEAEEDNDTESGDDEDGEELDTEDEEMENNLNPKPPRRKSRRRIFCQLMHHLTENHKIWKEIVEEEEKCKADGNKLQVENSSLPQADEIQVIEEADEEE
T1 sequence (Q14432 whole entry): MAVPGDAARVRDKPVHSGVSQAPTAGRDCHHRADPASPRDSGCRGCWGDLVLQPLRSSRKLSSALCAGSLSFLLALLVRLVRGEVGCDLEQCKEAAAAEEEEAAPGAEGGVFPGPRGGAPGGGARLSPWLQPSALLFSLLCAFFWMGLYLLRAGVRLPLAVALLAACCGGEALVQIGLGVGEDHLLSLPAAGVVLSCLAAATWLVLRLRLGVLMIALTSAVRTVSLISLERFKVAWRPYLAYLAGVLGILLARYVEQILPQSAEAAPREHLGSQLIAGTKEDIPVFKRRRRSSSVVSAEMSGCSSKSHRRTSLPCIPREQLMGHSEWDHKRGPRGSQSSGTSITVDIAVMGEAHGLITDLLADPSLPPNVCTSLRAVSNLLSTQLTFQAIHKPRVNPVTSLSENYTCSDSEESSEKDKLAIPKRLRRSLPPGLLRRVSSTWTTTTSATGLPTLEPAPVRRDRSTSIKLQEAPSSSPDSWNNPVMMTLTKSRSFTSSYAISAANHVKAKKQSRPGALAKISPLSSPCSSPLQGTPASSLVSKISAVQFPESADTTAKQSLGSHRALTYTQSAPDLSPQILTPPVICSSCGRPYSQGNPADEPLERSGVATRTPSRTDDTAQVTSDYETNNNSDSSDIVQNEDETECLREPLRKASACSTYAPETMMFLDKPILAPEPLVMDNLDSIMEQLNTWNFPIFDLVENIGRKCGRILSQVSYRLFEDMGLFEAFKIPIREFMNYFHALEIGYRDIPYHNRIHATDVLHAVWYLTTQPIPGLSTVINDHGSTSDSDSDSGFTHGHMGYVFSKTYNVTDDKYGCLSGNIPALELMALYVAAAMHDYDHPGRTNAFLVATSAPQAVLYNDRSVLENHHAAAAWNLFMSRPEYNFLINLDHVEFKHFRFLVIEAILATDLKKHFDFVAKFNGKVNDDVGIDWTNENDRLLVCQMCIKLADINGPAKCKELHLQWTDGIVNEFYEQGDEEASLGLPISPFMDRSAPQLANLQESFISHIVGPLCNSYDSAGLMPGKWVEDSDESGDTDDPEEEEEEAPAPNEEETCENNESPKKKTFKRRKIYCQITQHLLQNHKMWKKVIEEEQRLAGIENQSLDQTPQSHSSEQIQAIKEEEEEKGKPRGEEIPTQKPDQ

| SMILES | IC50 [1] [nM] | IC50 (SK-MEL-3 (melanoma)) [nM] | IC50 (human full length PDE3A) [nM] | IC50 (human full length PDE3B) [nM] |
| --- | --- | --- | --- | --- |
| O=C1CCC(c2ccc(N3CCOCC3)c(C(F)(F)F)c2)=NN1 [Example 126, 6-[4-(Morpholin-4-yl)-3-(trifluoromethyl)phenyl]-4,5-dihydropyridazin-3(2H)-one] | 5.29 | 7.06 | 59 | 95 |
| Cc1cc(C2=NNC(=O)CC2)ccc1-c1c(F)cccc1F [Example 110, 6-(2′,6′-difluoro-2-methyl[1,1′-biphenyl]-4-yl)-4,5-dihydropyridazin-3(2H)-one] | 8.57 | 39.2 | 240 | 260 |
| Cc1cc(C2=NNC(=O)CC2)ccc1-c1ccc(F)cc1F [Example 106, 6-(2′,4′-difluoro-2-methyl[1,1′-biphenyl]-4-yl)-4,5-dihydropyridazin-3(2H)-one] | 4.79 | 21.4 | 110 | 100 |
| COc1ccccc1-c1ccc(C2=NNC(=O)CC2)cc1C [Example 111, 6-(2′-methoxy-2-methyl[1,1′-biphenyl]-4-yl)-4,5-dihydropyridazin-3(2H)-one] | 39.6 | > 100 | 42 | 32 |
| Cc1cc(C2=NNC(=O)CC2)ccc1-c1ccc(C#N)cc1 [Example 100, 2′-methyl-4′-(6-oxo-1,4,5,6-tetrahydropyridazin-3-yl)[1,1′-biphenyl]-4-carbonitrile] | 22.5 | > 100 | 58 | 59 |
| O=C1CCC(c2ccc(-c3cc(F)cc(F)c3)c(F)c2)=NN1 [Example 54, 6-(2,3′,5′-trifluoro[1,1′-biphenyl]-4-yl)-4,5-dihydropyridazin-3(2H)-one] | 18.5 | 37.8 | 190 | 380 |
| Cc1cc(C2=NNC(=O)CC2)ccc1-c1ccc(F)c(F)c1F [Example 97, 6-(2′,3′,4′-trifluoro-2-methyl[1,1′-biphenyl]-4-yl)-4,5-dihydropyridazin-3(2H)-one] | 12.1 | 82 | 170 | 120 |
| Cc1ccc(F)c(-c2ccc(C3=NNC(=O)CC3)cc2F)c1 [Example 68, 6-(2,2′-difluoro-5′-methyl[1,1′-biphenyl]-4-yl)-4,5-dihydropyridazin-3(2H)-one] | 36.3 | 71.2 | 160 | 100 |
| COc1ccc(OC)c(-c2ccc(C3=NNC(=O)CC3)cc2F)c1 [Example 41, 6-(2-fluoro-2′,5′-dimethoxy[1,1′-biphenyl]-4-yl)-4,5-dihydropyridazin-3(2H)-one] | 51.6 | 68.8 | 150 | 100 |
| Cc1ccc(-c2ccc(C3=NNC(=O)CC3)cc2F)cc1N [Example 48, 6-(3′-amino-2-fluoro-4′-methyl[1,1′-biphenyl]-4-yl)-4,5-dihydropyridazin-3(2H)-one] | 13.1 | 20.9 | 230 | 260 |
| O=C1CCC(c2ccc(-c3ccc(F)cc3F)c(F)c2)=NN1 [Example 55, 6-(2,2′,4′-trifluoro[1,1′-biphenyl]-4-yl)-4,5-dihydropyridazin-3(2H)-one] | 1.96 | 3.39 | 50 | 62 |
| Cc1ccc(-c2ccc(C3=NNC(=O)CC3)cc2F)c(C)c1 [Example 56, 6-(2-fluoro-2′,4′-dimethyl[1,1′-biphenyl]-4-yl)-4,5-dihydropyridazin-3(2H)-one] | 4.34 | 7.24 | 110 | 62 |
| Cc1ncc(-c2ccc(C3=NNC(=O)CC3)cc2F)cn1 [Example 31, 6-[3-fluoro-4-(2-methylpyrimidin-5-yl)phenyl]-4,5-dihydropyridazin-3(2H)-one] | 34.4 | 47.3 | 160 | 93 |
| Nc1cccc(-c2ccc(C3=NNC(=O)CC3)cc2F)c1 [Example 65, 6-(3′-amino-2-fluoro[1,1′-biphenyl]-4-yl)-4,5-dihydropyridazin-3(2H)-one] | 12.8 | 16.9 | 120 | 76 |
| Cc1cc(C2=NNC(=O)CC2)ccc1-c1cccc(F)c1F [Example 104, 6-(2′,3′-difluoro-2-methyl[1,1′-biphenyl]-4-yl)-4,5-dihydropyridazin-3(2H)-one] | 13.4 | 70.8 | 120 | 120 |
| O=C1CCC(c2ccc(C3=CCCCC3)c(F)c2)=NN1 [Example 79, 6-(2-fluoro-2′,3′,4′,5′-tetrahydro[1,1′-biphenyl]-4-yl)-4,5-dihydropyridazin-3(2H)-one] | 4.47 | 6.15 | 170 | 170 |
| Cc1cc(C2=NNC(=O)CC2)ccc1-c1cc(F)c(F)cc1F [Example 95, 6-(2′,4′,5′-trifluoro-2-methyl[1,1′-biphenyl]-4-yl)-4,5-dihydropyridazin-3(2H)-one] | 9.32 | 60.7 | 180 | 200 |
| O=C1CCC(c2ccc(-c3cccnc3F)c(F)c2)=NN1 [Example 72, 6-[3-fluoro-4-(2-fluoropyridin-3-yl)phenyl]-4,5-dihydropyridazin-3(2H)-one] | 4.27 | 6.25 | 39 | 35 |
| Cc1cc(C2=NNC(=O)CC2)ccc1-c1ccnc(N)c1 [Example 90, 6-[4-(2-aminopyridin-4-yl)-3-methylphenyl]-4,5-dihydropyridazin-3(2H)-one] | 16 | > 100 | 47 | 65 |
| O=C1CCC(c2ccc(N3CC4CC(C3)C4(F)F)c(C(F)(F)F)c2)=NN1 [Example 21, 6-[4-(6,6-Difluoro-3-azabicyclo[3.1.1]hept-3-yl)-3-(trifluoromethyl)phenyl]-4,5-dihydropyridazin-3(2H)-one] | 2.87 | 5.82 | 82 | 50 |
| O=C1CCC(c2ccc(-c3cc(F)c(F)cc3F)c(F)c2)=NN1 [Example 38, 6-(2,2′,4′,5′-tetrafluoro[1,1′-biphenyl]-4-yl)-4,5-dihydropyridazin-3(2H)-one] | 5.59 | 11.1 | 100 | 100 |
| Cc1cc(-c2ccc(C3=NNC(=O)CC3)cc2C)ccc1F [Example 119, 6-(4′-fluoro-2,3′-dimethyl[1,1′-biphenyl]-4-yl)-4,5-dihydropyridazin-3(2H)-one] | 65.8 | > 100 | 290 | 290 |
| O=C1CCC(c2ccc(-c3ccncc3)c(F)c2)=NN1 [Example 30, 6-[3-fluoro-4-(pyridin-4-yl)phenyl]-4,5-dihydropyridazin-3(2H)-one] | 9.66 | 14.2 | 33 | 31 |
